Assay results as given in US10463630B2, “Interaction of methylated LSD1 and CHD1, a compound inhibiting this interaction for use in therapy, and a screening method for such a compound” (Albert-Ludwigs-Universität Freiburg, priority 2015, dated 2019).
Substitutions are numbered along the chain they refer to.

Legend:
[1] = system: LAPC4 cells; test: Chromosome conformation capture (3C), TMPRSS2 enhancer-breakpoint loop; format: cell-based; conditions: DHT, Bix-01294, FIG. 4b
Method: LNCaP cells were grown for 72 hours in medium supplemented with 10% double-stripped FCS, treated for 210 min with or without DHT 10^−7 M, washed in PBS, and trypsinized 2 min at 37° C. After washing, cells were resuspended in PBS, filtered through a 40 μm cell strainer and collected in an ice cold 2% formaldehyde solution. After 15 min incubation at 4° C., fixation was stopped by adding glycine and cells were pelleted. After washing, cells were resuspended in nuclear isolation buffer (10 mM HEPES-KOH pH 7.9, 1.5 mM MgCl2, 10 mM KCl, 0.5 mM DTT, Complete protease inhibitor cocktail, Roche), allowed to swell on ice for 10 min, vortexed for 10 seconds at low speed, and pelleted. Isolated nuclei were resuspended in NEB restriction buffer, SDS was added to a final concentration of 0.5%, and nuclei were incubated for 1 h at 37° C. while shaking. Upon addition of Triton X-100, samples were incubated for 1 h at 37° C. to sequester SDS. 50 μl of the sample were taken and used as an undigested control. 600 U restriction enzyme were added and samples were incubated overnight at 37° C. while shaking. 40 μl 20% SDS solution was added and incubated for 20 min at 65° C. to inactivate the restriction enzyme. […] Purified DNA samples were analyzed on a Roche LightCycler®480 by TaqMan-based qPCR. […] To verify Enhancer-Breakpoint PCR product, samples were analyzed on a 2% agarose gel and sequenced. […]

[2] = system: LAPC4 cells; test: Expression of androgen-regulated genes (quantitative RT-PCR); format: cell-based; conditions: 1×10^−5 M Bix-01294, FIG. 3k
[3] = system: LNCaP cells; test: Chromatin immunoprecipitation (ChIP) at AREs of TMPRSS2 and KLK3 enhancers; format: cell-based, human; conditions: for chromatin occupancy of G9A: presence or absence of DHT and Bix-01294
Method: ChIP experiments were performed essentially as previously described^10. LNCaP and LAPC4 cells were cultured for 210 min in the absence or presence of 1×10^-7 M DHT as indicated. Three days before harvesting, cells were transfected with siRNA against LSD110, G9A20, or CHD121 that were previously described and validated using Dharmafect2 (Thermo Scientific) following the manufacturer's instructions. Immunoprecipitation was performed with specific antibodies (α-AR (N-20), #sc-816, lot A0207, Santa Cruz), α-LSD1 (#20752, Schuele Laboratory), α-LSD1 K114me2 (#4871, Schuele Laboratory), α-CHD1 (#A301-218A, lot A301-218A-1, Bethyl Laboratories), α-G9A (#ab40542, lot GR170862-1, Abcam) on protein A-Sepharose 4B (GE-Healthcare). For PCR, 2 μl out of 70 μl DNA extract were used. Primer sequences were as follows: TMPRSS2 enhancer (−13782/−13866) 5′-[…]-3′ (SEQ ID NO:1) and 5′-[…]-3′ (SEQ ID NO:2); KLK3 enhancer (−3980/−4048) 5′-[…]-3′ (SEQ ID NO:3) and 5′-[…]-3′ (SEQ ID NO:4); control (chr6:151953789-151953927) 5′-[…]-3′ (SEQ ID NO:5) and 5′-[…]-3′ (SEQ ID NO:6).
LNCaP cells were cultured and transfected as described^10.

[4] = system: LNCaP cells; test: Expression of androgen-regulated genes (quantitative RT-PCR); format: cell-based, human; conditions: 1×10^−5 M Bix-01294, FIG. 3j
[5] = system: LNCaP cells
Method: LNCaP cells were grown for 72 hours in medium supplemented with 10% double-stripped FCS, treated for 210 min with or without DHT 10^−7 M, washed in PBS, and trypsinized 2 min at 37° C. After washing, cells were resuspended in PBS, filtered through a 40 μm cell strainer and collected in an ice cold 2% formaldehyde solution. After 15 min incubation at 4° C., fixation was stopped by adding glycine and cells were pelleted. After washing, cells were resuspended in nuclear isolation buffer (10 mM HEPES-KOH pH 7.9, 1.5 mM MgCl2, 10 mM KCl, 0.5 mM DTT, Complete protease inhibitor cocktail, Roche), allowed to swell on ice for 10 min, vortexed for 10 seconds at low speed, and pelleted. Isolated nuclei were resuspended in NEB restriction buffer, SDS was added to a final concentration of 0.5%, and nuclei were incubated for 1 h at 37° C. while shaking. Upon addition of Triton X-100, samples were incubated for 1 h at 37° C. to sequester SDS. 50 μl of the sample were taken and used as an undigested control. 600 U restriction enzyme were added and samples were incubated overnight at 37° C. while shaking. 40 μl 20% SDS solution was added and incubated for 20 min at 65° C. to inactivate the restriction enzyme. […] Purified DNA samples were analyzed on a Roche LightCycler®480 by TaqMan-based qPCR. […] To verify Enhancer-Breakpoint PCR product, samples were analyzed on a 2% agarose gel and sequenced.

[6] = system: LNCaP cells; conditions: DHT 10^−6 M, 3 days, FIG. 4g
Method: (§1) LNCaP cells were cultured and transfected as described^10. […] For FISH and analysis of TMPRSS2-ERG expression (FIG. 4f,g) cells were transfected with siRNAs height and five days before harvesting; DHT 10^−6 M was added to the cells as indicated 3 days before harvesting. […] Cells were cultivated for 3 days (FIG. 4f, g) with DHT 10^−6 M as indicated.
To determine TMPRSS2-ERG fusion status in LNCaP cells, a FISH break-apart assay was performed as described previously^41. The FISH probe consists of two BAC clones spanning the centromeric and telomeric region of the ERG locus on chromosome 21q22.2: RP11-24A11 labelled with biotin-14-dCTP (red) and RP11-137J13 labelled with digoxigenin-dUTP (green). After harvesting, LNCaP cells were incubated with 0.075 M KCl at 37° C. for 15 min and fixed on slides (acetic acid/methanol 1:3). Slides were pre-treated with 2×SSC at 37° C. for 60 min, digested with 1:25 Digest-A11 III at 37° C. for 6 min and dehydrated in an ascending ethanol series. The probes were denatured at 73° C. for 5 min and subsequently co-denaturized with the cells (85° C., 4 min). Hybridization of the two probes was performed at 37° C. overnight. […] Finally slides were counterstained with DAPI and mounted and independently evaluated by two persons.

[7] = system: LNCaP cells; conditions: DHT 10^−6 M, 3 days, FIG. 4f
Method: Expression analysis of TMPRSS2-ERG (FIG. 4f) was done essentially as previously described. […] HPRT was used for normalization.
as §1

[8] = molecular target: T1, CHD1 D425A (Homo sapiens, UniProt O14646, D425A); test: ITC with CHD1 D425A mutant; format: binding; conditions: data not shown
T1 construct: titration of LSD1aa104-127 K114me0, 1, 2, and 3 peptides to CHD1aa270-443; made in house; E. coli likely, inferred from the pET15b vector of the wild-type fragment
T1 sequence (O14646 270-443 D425A): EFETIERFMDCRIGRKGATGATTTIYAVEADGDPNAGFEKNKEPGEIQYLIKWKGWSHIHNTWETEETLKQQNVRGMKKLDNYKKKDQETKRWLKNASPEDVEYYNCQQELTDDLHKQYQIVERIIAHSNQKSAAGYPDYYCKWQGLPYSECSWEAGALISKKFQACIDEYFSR
Excerpt: Amino acid residues 110-116 of the LSD1 peptide were modelled according to the electron density (FIG. 2c). […] This interaction involves residues Y295, W322, W325 from chromodomain 1 and D408 and D425 from chromodomain 2 (FIG. 2b and FIG. 5a). The methylammonium group of LSD1 K114 and side chains of W322 and W325 of CHD1 form cation-π interactions. […] It was therefore hypothesized that the R113-D425 interaction may be a discriminating feature of CHD1 binding either LSD1 K114me2 or H3K4me3 peptide and that the corresponding surface could be exploited for the design of inhibitors specifically interfering with LSD1 K114me2 but not H3K4me3 interaction (see FIG. 5c). […] Next, it was tested whether in vivo the interaction of CHD1 with LSD1 depends on LSD1 methylation. In the presence of G9A, endogenous CHD1 only coimmunoprecipitated with methylated Flag-LSD1, but not with Flag-LSD1 K114A (FIG. 2d). To investigate whether CHD1 and LSD1 K114me2 are present in the same protein complex, LNCaP cell extracts were subjected to sucrose gradient centrifugation. […] Furthermore, endogenously expressed CHD1 and LSD1 K114me2 coimmunoprecipitated with G9A from LNCaP cell extracts (FIG. 2f). Together, these observations identify CHD1 as a LSD1 K114me2 reader.
ITC experiments were performed at 25° C. with a MicroCal VP-ITC microcalorimeter (GE Healthcare). […]

[9] = molecular target: T2, CHD1aa270-443 (Homo sapiens, UniProt O14646); test: Isothermal titration calorimetry (ITC) of peptides titrated to CHD1; format: binding; conditions: FIG. 2a
T2 construct: titration of LSD1aa104-127 K114me0, 1, 2, and 3 peptides to CHD1aa270-443; made in house; E. coli likely, inferred from the pET15b vector
T2 sequence (O14646 270-443): T1 sequence (O14646 270-443 D425A) with A156D
Method: ITC experiments were performed at 25° C. with a MicroCal VP-ITC microcalorimeter (GE Healthcare). Experiments were performed by injecting 12 μl of peptide (1.5 mM) into the sample cell containing 100 μM CHD1 in 20 mM BTP pH 8, 75 mM NaCl. A total of 24 injections were performed with a spacing of 240 s and a reference power of […]. Automated baseline assignment and peak integration were performed with NITPIC version 1.0.1.^26. Isotherms were plotted, with a single-site binding model, using SEDPHAT version 10.58d^26. Isotherms were subsequently validated by one dimensional error surface projections in SEDFIT^27.

[10] = molecular target: T3, CHD1 double chromodomain (GST-CHD1 Chromo 1/2) (Homo sapiens, UniProt O14646); test: Protein profiling on protein-domain microarrays with LSD1 peptides; format: binding; conditions: GST-fusion proteins
T3 sequence (O14646 268-443 limits assumed): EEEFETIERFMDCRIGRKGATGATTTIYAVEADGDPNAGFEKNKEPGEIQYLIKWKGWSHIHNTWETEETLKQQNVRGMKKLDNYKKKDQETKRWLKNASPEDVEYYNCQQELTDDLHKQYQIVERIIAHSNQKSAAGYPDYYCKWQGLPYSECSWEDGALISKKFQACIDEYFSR
Method: To identify potential LSD1 K114me2 methyl-lysine reader proteins, protein profiling was performed on protein-domain microarrays using un- and dimethylated LSD1 peptides LSD1aa104-127 and LSD1aa104-127 K114me2, respectively (see also ref.^14). In this profiling assay, several GST-fusion proteins including CHD1 fused to GST were used. Other GST-fusions that were used were e.g. PhD-domain proteins (BPTF, ING2 or PHF2), BROMO-domain proteins (GCN5, TAF1-D1 or TAF1-D2), or BRCT-proteins (BRCA1, 53BP1 or Crb2).

**Q.** `COc1cc2nc(N3CCCN(C)CC3)nc(NC3CCN(Cc4ccccc4)CC3)c2cc1OC` [Bix-01294] was tested. Which “androgen-dependent TMPRSS2 enhancer-breakpoint loop formation” value [1] did it give?
**A.** blocked this loop formation

**Q.** And the “DHT-induced expression of TMPRSS2, KLK3, PRDM4, ELK4, GREB1, IGF1R, FKBP5, or EGFR” value [2]?
**A.** greatly reduced

**Q.** And the “chromatin occupancy of G9A” value ([3]; ChIP)?
**A.** not altered

**Q.** And the “androgen-induced methylation of LSD1 and androgen-induced recruitment of CHD1 and AR” value ([3]; DHT, 1×10^−5 M Bix-01294, ChIP, FIG. 3g)?
**A.** blocked

**Q.** What about the “DHT-induced expression of TMPRSS2, KLK3, PRDM4, ELK4, GREB1, IGF1R, FKBP5, or EGFR” value [4] of the same compound?
**A.** greatly reduced

**Q.** And the “androgen-dependent TMPRSS2 enhancer-breakpoint loop formation” value ([5]; DHT, Bix-01294, FIG. 4a)?
**A.** blocked this loop formation

**Q.** For `C[C@]12CCC(=O)C[C@@H]1CC[C@@H]1[C@@H]2CC[C@]2(C)[C@@H](O)CC[C@@H]12` [DHT, dihydrotestosterone], which “chromatin occupancy of G9A” value ([3]; ChIP) is on record?
**A.** not altered

**Q.** What about the “LSD1 K114me2 levels and CHD1 and AR occupancy of the TMPRSS2 and KLK3 genes” value ([3]; DHT 10^−7 M, 210 min, ChIP) of the same compound?
**A.** elevated LSD1 K114me2 levels accompanied by increased CHD1 and AR occupancy

**Q.** What about the “ERG rearrangements by FISH” value [6] of the same compound?
**A.** induced ERG rearrangements

**Q.** And the TMPRSS2-ERG transcript [7]?
**A.** led to the production of TMPRSS2-ERG transcript

**Q.** And the TMPRSS2 enhancer-breakpoint interactions ([5]; DHT 10^−7 M, 210 min, 3C)?
**A.** enhancer-breakpoint interactions upon treatment with DHT was observed

**Q.** “H3K4me3 peptide: histone 3 peptide modified at lysine residue 4 by three methyl-groups” was tested. Which “effect of D425A mutation in CHD1 on peptide binding” value [8] did it give?
**A.** only mildly affected

**Q.** Which “binding to GST-CHD1 Chromo 1/2” value [9] does the source give for “Unmethylated H3 peptide: unmethylated histone H3 peptide” here?
**A.** did not bind

**Q.** Which “binding to GST-CHD1 Chromo 1/2” value [9] does the source give for “Unmethylated LSD1: unmethylated LSD1 peptide LSD1aa104-127 (TPEGRRTSRRKRAKVEYREMDESL)” here?
**A.** did not bind

**Q.** What about the “interaction with CHD1 double chromodomain on microarray” value [10] of the same compound?
**A.** not
